Source: patent publication US6893654B2, “Two-stage transmucosal medicine delivery system for symptom relief” (priority 1998, dated 2005)

Conditions: solution at pH 8.0

## CN1CCCC1c1cccnc1 (stereo not shown) [nicotine]
  portion of nicotine unionized and free to be absorbed: fifty
